Assay results published in patent US12655116B2, “Substituted isophthalic acid diamides” (Bayer Aktiengesellschaft, priority 2020, dated 2026).

Key:
[1] = system: ECHCG; experiment: Post-emergence herbicidal action against ECHCG; assay type: in vivo, Echinochloa crus-galli; details: dosage 20 g/ha
Method in brief: (§1)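 Herbicidal action is a visual percentage rating (0% = as untreated control, 100% = plants dead) made roughly 3 weeks after treatment. Plants were grown in sandy loam in the greenhouse and treated at the one-leaf stage, 2 to 3 weeks post-sowing. Treatment was a foliar spray of wettable-powder or emulsion-concentrate formulations at 600 to 800 l/ha water plus 0.2% wetting agent.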

[2] = system: DIGSA; experiment: Pre-emergence herbicidal action against DIGSA; assay type: in vivo, Digitaria sanguinalis
Method in brief: (§2)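 Sandy loam pots, seeds covered with soil, then surface-treated with WP or EC formulations at 600–800 l/ha water plus 0.2% wetting agent. Greenhouse, 3 weeks. Percent damage vs untreated controls.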

[3] = system: PHBPU; experiment: Post-emergence herbicidal action against PHBPU; assay type: in vivo, Pharbitis purpurea; details: dosage 20 g/ha
Method in brief: as §1

[4] = system: ALOMY; experiment: Pre-emergence herbicidal action against ALOMY; assay type: in vivo, Alopecurus myosuroides; details: pre-emergence
Method in brief: as §2

[5] = system: AMARE; experiment: Pre-emergence herbicidal action against AMARE; assay type: in vivo, Amaranthus retroflexus
Method in brief: as §2

[6] = system: ALOMY; experiment: Post-emergence herbicidal action against ALOMY; assay type: in vivo, Alopecurus myosuroides; details: dosage 20 g/ha, visual assessment about 3 weeks after treatment vs untreated controls
Method in brief: as §1

[7] = system: MATIN; experiment: Post-emergence herbicidal action against MATIN; assay type: in vivo, Matricaria inodora
Method in brief: as §1

[8] = system: SETVI; experiment: Pre-emergence herbicidal action against SETVI; assay type: in vivo, Setaria viridis
Method in brief: as §2

[9] = system: PHBPU; experiment: Pre-emergence herbicidal action against PHBPU; assay type: in vivo, Pharbitis purpurea; details: dosage 80 g/ha
Method in brief: as §2

[10] = system: ABUTH; experiment: Pre-emergence herbicidal action against ABUTH; assay type: in vivo, Abutilon theophrasti
Method in brief: as §2

[11] = system: ECHCG; experiment: Pre-emergence herbicidal action against ECHCG; assay type: in vivo, Echinochloa crus-galli; details: 80 g/ha
Method in brief: as §2

[12] = system: VERPE; experiment: Post-emergence herbicidal action against VERPE; assay type: in vivo, Veronica persica
Method in brief: as §1

[13] = system: DIGSA; experiment: Post-emergence herbicidal action against DIGSA; assay type: in vivo, Digitaria sanguinalis
Method in brief: as §1

[14] = system: VIOTR; experiment: Pre-emergence herbicidal action against VIOTR; assay type: in vivo, Viola tricolor
Method in brief: as §2

[15] = system: POLCO; experiment: Pre-emergence herbicidal action against POLCO; assay type: in vivo, Polygonum convolvulus; details: dosage 80 g/ha
Method in brief: as §2

[16] = system: VERPE; experiment: Pre-emergence herbicidal action against VERPE; assay type: in vivo, Veronica persica
Method in brief: as §2

[17] = system: AMARE; experiment: Post-emergence herbicidal action against AMARE; assay type: in vivo, Amaranthus retroflexus; details: 20 g/ha, visual assessment about 3 weeks after treatment, 100% = plants have died, 0% = like control plants
Method in brief: as §1

[18] = system: ABUTH; experiment: Post-emergence herbicidal action against ABUTH; assay type: in vivo, Abutilon theophrasti; details: dosage 20 g/ha, visual assessment about 3 weeks after treatment vs untreated controls
Method in brief: as §1

[19] = system: AVEFA; experiment: Pre-emergence herbicidal action against AVEFA; assay type: in vivo, Avena fatua; details: 80 g/ha, pre-emergence
Method in brief: as §2

[20] = system: MATIN; experiment: Pre-emergence herbicidal action against MATIN; assay type: in vivo, Matricaria inodora
Method in brief: as §2

[21] = system: VIOTR; experiment: Post-emergence herbicidal action against VIOTR; assay type: in vivo, Viola tricolor; details: Viola tricolor, 504 h
Method in brief: as §1

[22] = system: SETVI; experiment: Post-emergence herbicidal action against SETVI; assay type: in vivo, Setaria viridis; details: Setaria viridis, 504 h
Method in brief: as §1

[23] = 80 g/ha, scored visually after 3 weeks vs untreated controls (100% = plants have died, 0% = like control plants)
[24] = Tripleurospermum inodorum, 504 h, dosage 20 g/ha

## CC(NC(=O)c1c(C(F)F)ccc(C(=O)Nc2nnnn2C)c1Br)C1CC1 (stereo not drawn) [Example 1-340]
[1]
  Post-emergence action against ECHCG in %: 90%
[2]; dosage 20 g/ha
  Pre-emergence action against DIGSA in %: 100%
[2]; dosage 80 g/ha
  Pre-emergence action against DIGSA in %: 100%
[3]
  Post-emergence action against PHBPU in %: 90%
[4]; [23]
  Pre-emergence action against ALOMY (herbicidal activity): 90%
[5]; 20 g/ha, scored visually after 3 weeks vs untreated controls, 100% = plants have died, 0% = like control plants
  Pre-emergence action against AMARE in %: 100%
[5]; [23]
  Pre-emergence action against AMARE in %: 100%
[6]
  Post-emergence action against ALOMY in %: 80%
[7]; dosage 20 g/ha
  Post-emergence action against MATIN in %: 80%
[8]; dosage 20 g/ha
  Pre-emergence action against SETVI in %: 90%
[8]; dosage 80 g/ha
  Pre-emergence action against SETVI in %: 100%
[9]
  Pre-emergence action against PHBPU in %: 90%
[10]; [23]
  Pre-emergence action against ABUTH (herbicidal activity): 100%
[10]; dosage 20 g/ha, scored visually after 3 weeks vs untreated controls, 100% = plants have died, 0% = like control plants
  Pre-emergence action against ABUTH (herbicidal activity in percent): 100%
[11]
  Pre-emergence action against ECHCG in %: 100%
[12]; 20 g/ha
  Post-emergence action against VERPE in %: 80%
[13]; 20 g/ha
  Post-emergence action against DIGSA: 90%
[14]; dosage 20 g/ha
  Pre-emergence action against VIOTR in %: 100%
[14]; dosage 80 g/ha
  Pre-emergence action against VIOTR in %: 100%
[15]
  Pre-emergence action against POLCO in %: 90%
[16]; dosage 20 g/ha
  Pre-emergence action against VERPE in %: 100%
[16]; dosage 80 g/ha
  Pre-emergence action against VERPE in %: 100%
[17]
  Post-emergence action at 20 g/ha against AMARE in %: 90%
[18]
  Post-emergence action against ABUTH in %: 80%
[19]
  Pre-emergence action against AVEFA in %: 80%
[20]; dosage 20 g/ha
  Pre-emergence action against MATIN in %: 100%
[20]; dosage 80 g/ha
  Pre-emergence action against MATIN in %: 100%

## CCn1nnnc1NC(=O)c1ccc(C(F)(F)F)c(C(=O)NC)c1Br [Example 2-207]
[2]; Digitaria sanguinalis, 504 h, dosage 20 g/ha
  pest or weed control at 20 g/ha: 90%
[2]; Digitaria sanguinalis, 504 h, dosage 80 g/ha
  pest or weed control at 80 g/ha: 100%
[3]; Ipomoea purpurea, 504 h
  pest or weed control at 20 g/ha: 80%
[4]; Alopecurus myosuroides, 504 h, 80 g/ha, scored visually after 3 weeks vs untreated controls (100% = plants have died, 0% = like control plants)
  pest or weed control at 80 g/ha: 90%
[4]; Alopecurus myosuroides, 504 h, 20 g/ha, scored visually after 3 weeks, 100% = plants have died, 0% = like control plants
  pest or weed control at 20 g/ha: 80%
[5]; Amaranthus retroflexus, 504 h, 20 g/ha, scored visually after 3 weeks vs untreated controls, 100% = plants have died, 0% = like control plants
  pest or weed control at 20 g/ha: 100%
[5]; Amaranthus retroflexus, 504 h, 80 g/ha, scored visually after 3 weeks vs untreated controls, 100% = plants have died, 0% = like control plants
  pest or weed control at 80 g/ha: 100%
[6]; Alopecurus myosuroides, 504 h
  pest or weed control at 20 g/ha: 90%
[7]; Tripleurospermum inodorum, 504 h, dosage 5 g/ha
  pest or weed control at 5 g/ha: 80%
[7]; [24]
  pest or weed control at 20 g/ha: 90%
[8]; Setaria viridis, 504 h, dosage 20 g/ha
  pest or weed control at 20 g/ha: 100%
[8]; Setaria viridis, 504 h, dosage 80 g/ha
  pest or weed control at 80 g/ha: 100%
[9]; Ipomoea purpurea, 504 h
  pest or weed control at 80 g/ha: 80%
[10]; Abutilon theophrasti, 504 h, 80 g/ha, scored visually after 3 weeks vs untreated controls (100% = plants have died, 0% = like control plants)
  pest or weed control at 80 g/ha: 100%
[10]; Abutilon theophrasti, 504 h, dosage 20 g/ha, scored visually after 3 weeks vs untreated controls, 100% = plants have died, 0% = like control plants, read-out: Pre-emergence action against ABUTH (herbicidal activity in percent)
  pest or weed control at 20 g/ha: 100%
[11]; Echinochloa crus-galli, 504 h
  pest or weed control at 80 g/ha: 100%
[12]; Veronica persica, 504 h, 5 g/ha
  pest or weed control at 5 g/ha: 80%
[12]; Veronica persica, 504 h, 20 g/ha
  pest or weed control at 20 g/ha: 90%
[13]; Digitaria sanguinalis, 504 h, 5 g/ha
  pest or weed control at 5 g/ha: 80%
[13]; Digitaria sanguinalis, 504 h, 20 g/ha
  pest or weed control at 20 g/ha: 100%
[14]; Viola tricolor, 504 h, dosage 20 g/ha
  pest or weed control at 20 g/ha: 90%
[14]; Viola tricolor, 504 h, dosage 80 g/ha
  pest or weed control at 80 g/ha: 100%
[15]; Fallopia convolvulus, 504 h
  pest or weed control at 80 g/ha: 90%
[16]; Veronica persica, 504 h, dosage 80 g/ha
  pest or weed control at 80 g/ha: 90%
[17]; Amaranthus retroflexus, 504 h
  pest or weed control at 20 g/ha: 100%
[21]; 5 g/ha
  pest or weed control at 5 g/ha: 100%
[21]; 20 g/ha
  pest or weed control at 20 g/ha: 100%
[22]; dosage 5 g/ha
  pest or weed control at 5 g/ha: 90%
[22]; dosage 20 g/ha
  pest or weed control at 20 g/ha: 100%
[18]; Abutilon theophrasti, 504 h
  pest or weed control at 20 g/ha: 90%
[19]; Avena fatua, 504 h
  pest or weed control at 80 g/ha: 90%
[20]; [24]
  pest or weed control at 20 g/ha: 90%
[20]; Tripleurospermum inodorum, 504 h, dosage 80 g/ha
  pest or weed control at 80 g/ha: 100%
